Results reported in ChEMBL document CHEMBL1201862, “PubChem BioAssay data set” (2004).
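Tested at 5 concentrations; 48 h exposure; 96-well plates; endpoints linearly interpolated, else capped at highest concentration. GI50 is the concentration that inhibits growth by half.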 The source made the active and inactive calls. Cut-off read from the data, not from the text of the source: active = GI50 up to about 1.1 µM and inactive = higher.

Key:
Experiment in all cases: NCI anticancer screen, dose series, 48 h
[1] = tested on: EKVX
[2] = tested on: OVCAR-3
[3] = tested on: MCF7
[4] = tested on: HT-29
[5] = tested on: OVCAR-4
[6] = tested on: MOLT-4
[7] = tested on: HL-60
[8] = tested on: HCT-15
[9] = tested on: UACC-62
[10] = tested on: 786-0
[11] = tested on: NCI-H460
[12] = tested on: MDA-MB-435
[13] = tested on: SNB-19
[14] = tested on: SK-OV-3
[15] = tested on: SR
[16] = tested on: NCI/ADR-RES
[17] = tested on: HCC 2998
[18] = tested on: MDA-N
[19] = tested on: RPMI-8226

Structure (SMILES)	GI50 [1]	GI50 [2]	GI50 [3]	GI50 [4]	GI50 [5]	GI50 [6]	GI50 [7]	GI50 [8] [µM]	GI50 [9]	GI50 [10]	GI50 [11]	GI50 [12]	GI50 [13]	GI50 [14]	GI50 [15]	GI50 [16]	GI50 [17]	GI50 [18]	GI50 [19]
Oc1cc2c(cc1C(c1ccc3c(c1)OCO3)N1CCN(C(c3ccc4c(c3)OCO4)c3cc4c(cc3O)OCO4)CC1)OCO2 (stereo unspecified)	35.2 µM (inactive)	17.1 µM (inactive)	27.2 µM (inactive)	5.26 µM (inactive)	4.36 µM (inactive)	7.08 µM (inactive)	32.5 µM (inactive)	7.98	14.4 µM (inactive)	13.1 µM (inactive)	38.6 µM (inactive)	17.7 µM (inactive)	20.4 µM (inactive)	27 µM (inactive)	3.61 µM (inactive)	19.2 µM (inactive)	–	–	–
CSc1nc(Cl)c2c(n1)Sc1nc3cc4c(cc3n1C2O)OCCO4 (stereo unspecified)	15.2 µM (inactive)	0.137 µM (active)	0.053 µM (active)	0.0226 µM (active)	14.6 µM (inactive)	0.0348 µM (active)	–	0.104	0.125 µM (active)	0.0336 µM (active)	0.0897 µM (active)	0.0158 µM (active)	0.344 µM (active)	0.445 µM (active)	–	0.149 µM (active)	0.318 µM (active)	0.0308 µM (active)	0.0318 µM (active)
CC1(C)CC(=O)C(Cc2ccccc2)(Cc2ccccc2)C(=O)C1	> 100 µM (inactive)	–	> 100 µM (inactive)	> 100 µM (inactive)	> 100 µM (inactive)	> 100 µM (inactive)	> 100 µM (inactive)	> 100	> 100 µM (inactive)	> 100 µM (inactive)	> 100 µM (inactive)	–	> 100 µM (inactive)	> 100 µM (inactive)	> 100 µM (inactive)	> 100 µM (inactive)	> 100 µM (inactive)	> 100 µM (inactive)	–
OC1OC(c2ccco2)C(F)(F)C(F)(F)C1(F)F (stereo unspecified)	81.7 µM (inactive)	> 100 µM (inactive)	> 100 µM (inactive)	23.3 µM (inactive)	43.2 µM (inactive)	–	34.4 µM (inactive)	90.4	> 100 µM (inactive)	> 100 µM (inactive)	> 100 µM (inactive)	43.6 µM (inactive)	> 100 µM (inactive)	> 100 µM (inactive)	–	61.5 µM (inactive)	–	> 100 µM (inactive)	39.8 µM (inactive)
COc1cc(O)c2c(c1)OCC(Cc1ccc(O)cc1)C2=O (stereo unspecified)	–	60.4 µM (inactive)	–	> 100 µM (inactive)	86.3 µM (inactive)	> 100 µM (inactive)	> 100 µM (inactive)	94.8	> 100 µM (inactive)	> 100 µM (inactive)	> 100 µM (inactive)	> 100 µM (inactive)	> 100 µM (inactive)	> 100 µM (inactive)	55.8 µM (inactive)	> 100 µM (inactive)	–	> 100 µM (inactive)	65.5 µM (inactive)
N#CCCN(CCC#N)c1ccc(/C=C2\N=C(c3ccccc3)N(NC(N)=S)C2=O)cc1	> 100 µM (inactive)	> 100 µM (inactive)	> 100 µM (inactive)	> 100 µM (inactive)	> 100 µM (inactive)	> 100 µM (inactive)	> 100 µM (inactive)	> 100	> 100 µM (inactive)	> 100 µM (inactive)	> 100 µM (inactive)	41.4 µM (inactive)	> 100 µM (inactive)	> 100 µM (inactive)	–	> 100 µM (inactive)	–	> 100 µM (inactive)	> 100 µM (inactive)
CC1(C)OC(=O)C(Cc2ccccc2)(Cc2ccccc2)C(=O)O1	> 100 µM (inactive)	–	> 100 µM (inactive)	> 100 µM (inactive)	> 100 µM (inactive)	> 100 µM (inactive)	> 100 µM (inactive)	> 100	> 100 µM (inactive)	> 100 µM (inactive)	> 100 µM (inactive)	–	> 10 µM (inactive)	> 100 µM (inactive)	> 100 µM (inactive)	> 100 µM (inactive)	> 100 µM (inactive)	> 100 µM (inactive)	–
Clc1ccc(Nc2nnc(CCCCCCCCc3nnc(Nc4ccc(Cl)cc4)o3)o2)cc1	39 µM (inactive)	–	39 µM (inactive)	32 µM (inactive)	51.6 µM (inactive)	10.9 µM (inactive)	–	32.6	21.7 µM (inactive)	24.5 µM (inactive)	33.9 µM (inactive)	42.7 µM (inactive)	26.3 µM (inactive)	35.7 µM (inactive)	–	36 µM (inactive)	36.4 µM (inactive)	33.3 µM (inactive)	21.6 µM (inactive)
Fc1sc2c(c1F)C1CCC2C1 (stereo unspecified)	> 100 µM (inactive)	41.9 µM (inactive)	> 100 µM (inactive)	68.9 µM (inactive)	> 100 µM (inactive)	34.6 µM (inactive)	–	85.9	51.8 µM (inactive)	> 100 µM (inactive)	> 100 µM (inactive)	56.4 µM (inactive)	> 100 µM (inactive)	> 100 µM (inactive)	–	47.1 µM (inactive)	> 100 µM (inactive)	63.4 µM (inactive)	31.9 µM (inactive)
COc1cc2c[n+]3c4c(c2c(OC)c1OC)CCCC4CC3 (stereo unspecified)	> 100 µM (inactive)	66.5 µM (inactive)	–	> 100 µM (inactive)	> 100 µM (inactive)	> 100 µM (inactive)	–	> 100	> 100 µM (inactive)	> 100 µM (inactive)	> 100 µM (inactive)	> 100 µM (inactive)	36.6 µM (inactive)	> 100 µM (inactive)	–	> 100 µM (inactive)	98.4 µM (inactive)	> 100 µM (inactive)	> 100 µM (inactive)
C#CCOCC12C=CC(O1)C1COC(=O)C12 (stereo unspecified)	> 100 µM (inactive)	> 100 µM (inactive)	–	> 100 µM (inactive)	> 100 µM (inactive)	> 100 µM (inactive)	> 100 µM (inactive)	> 100	> 100 µM (inactive)	> 100 µM (inactive)	> 100 µM (inactive)	> 100 µM (inactive)	> 100 µM (inactive)	> 100 µM (inactive)	> 100 µM (inactive)	> 100 µM (inactive)	> 100 µM (inactive)	> 100 µM (inactive)	> 100 µM (inactive)
[BH3-][P+]1(CC[P@@+]([BH3-])(c2ccccc2)c2ccccc2OC)[C@@H](C)[C@@H](O)[C@H](O)[C@@H]1C (stereo partly specified)	12.4 µM (inactive)	16.1 µM (inactive)	18.2 µM (inactive)	22.6 µM (inactive)	16.8 µM (inactive)	20.4 µM (inactive)	23.2 µM (inactive)	17.5	14.8 µM (inactive)	27.2 µM (inactive)	16.4 µM (inactive)	16.7 µM (inactive)	17 µM (inactive)	22.8 µM (inactive)	–	16.5 µM (inactive)	–	16 µM (inactive)	23.4 µM (inactive)
Cn1c(=O)c2nc[nH]c2n(C)c1=O [THEOPHYLLINE]	> 100 µM (inactive)	> 100 µM (inactive)	> 100 µM (inactive)	–	–	> 100 µM (inactive)	> 100 µM (inactive)	> 100	–	> 100 µM (inactive)	> 100 µM (inactive)	–	–	–	> 100 µM (inactive)	> 100 µM (inactive)	> 100 µM (inactive)	> 100 µM (inactive)	> 100 µM (inactive)
